Test results published in BigSolDB 2.1.

Nc1cncc(Cl)n1
solubility (mole fraction)
Conditions	in DMF	in acetone	in acetonitrile	in ethanol	in ethylene glycol	in isopropanol	in methanol	in n-propanol	in propylene glycol	in water
278.15 K	0.00915	0.0117	0.00984	0.00159	0.000717	0.00421	0.00114	0.00494	0.000917	3.62e-05
283.15 K	0.0111	0.0141	0.0119	0.0019	0.000905	0.00503	0.00135	0.00588	0.00115	4.42e-05
288.15 K	0.0135	0.0167	0.0143	0.00226	0.00113	0.00608	0.00164	0.00709	0.00139	5.21e-05
293.15 K	0.0162	0.0198	0.0172	0.00272	0.00141	0.00737	0.00196	0.00858	0.00171	6.29e-05
298.15 K	0.0194	0.0231	0.0209	0.00323	0.00172	0.00874	0.00244	0.0105	0.00204	7.43e-05
303.15 K	0.023	0.0269	0.0248	0.00384	0.00204	0.0104	0.00293	0.0127	0.00237	8.97e-05
308.15 K	0.0271	0.0314	0.0295	0.00453	0.00239	0.0122	0.00347	0.0152	0.00281	0.000105
313.15 K	0.0322	0.0371	0.0352	0.0053	0.00281	0.0146	0.00415	0.0181	0.00327	0.000123
318.15 K	0.0378	0.0431	0.041	0.00624	0.00325	0.017	0.00489	0.0211	0.00379	0.000143
323.15 K	0.0442	0.0505	0.0488	0.00756	0.00377	0.0198	0.00575	0.0246	0.00448	0.000168
